The IC50 is the midpoint of a concentration-inhibition curve.

MNK1a, sequence (Q9BUB5 other isoform, or with tags, fused parts or gaps): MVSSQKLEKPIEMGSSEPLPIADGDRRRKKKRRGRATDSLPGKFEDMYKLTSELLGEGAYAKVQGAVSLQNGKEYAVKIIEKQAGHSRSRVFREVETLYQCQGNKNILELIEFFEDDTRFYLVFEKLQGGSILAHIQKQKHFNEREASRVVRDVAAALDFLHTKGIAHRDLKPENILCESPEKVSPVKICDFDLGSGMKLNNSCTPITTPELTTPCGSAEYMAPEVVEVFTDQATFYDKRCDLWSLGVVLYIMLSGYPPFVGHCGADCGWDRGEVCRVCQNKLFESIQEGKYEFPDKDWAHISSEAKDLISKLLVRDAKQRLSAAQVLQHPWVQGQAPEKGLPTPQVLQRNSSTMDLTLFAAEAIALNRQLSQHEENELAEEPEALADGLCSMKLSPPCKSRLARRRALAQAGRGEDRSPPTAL
MNK2a, sequence (Q9HBH9 whole entry): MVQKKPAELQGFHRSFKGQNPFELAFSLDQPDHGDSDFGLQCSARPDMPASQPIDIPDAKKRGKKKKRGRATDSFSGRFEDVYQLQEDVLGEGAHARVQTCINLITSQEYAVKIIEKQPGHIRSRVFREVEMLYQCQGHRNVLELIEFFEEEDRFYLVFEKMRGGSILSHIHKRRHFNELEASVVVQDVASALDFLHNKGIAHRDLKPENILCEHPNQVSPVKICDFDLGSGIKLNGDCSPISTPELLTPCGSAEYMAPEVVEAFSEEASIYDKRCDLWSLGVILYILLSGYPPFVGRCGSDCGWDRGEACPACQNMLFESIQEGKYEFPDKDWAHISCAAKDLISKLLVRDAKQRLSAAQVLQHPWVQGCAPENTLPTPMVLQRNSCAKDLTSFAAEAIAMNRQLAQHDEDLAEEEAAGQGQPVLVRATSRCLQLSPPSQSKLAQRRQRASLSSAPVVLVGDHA

For one assay, the target named is MNK2a (Homo sapiens (Human), UniProt Q9HBH9). The assay is described as follows: MNK2a in vitro kinase assay (Assay 2), ADP-Glo. The class given is biochemical. The note with it: assay 2; read-out: MNK2 IC50. The source says:
B. MNK2a In Vitro Kinase Assay (Assay 2)
Consider `CO[C@@H]1CN(C(C)=O)C[C@H]1Oc1cc(F)ccc1Nc1ncnc2cc(N=S3(=O)CCCC3)cc(C)c12` [Example 6.2], for which the half-maximal inhibitory concentration (IC50) came out at 185 nM.
Same read-out and setting: next, `CO[C@@H]1CN(C(C)=O)C[C@H]1Oc1ncccc1Nc1ncnc2cc(N=S(C)(C)=O)cc(C)c12` [Example 6.3]: 584 nM; `CO[C@@H]1CN(S(C)(=O)=O)C[C@H]1Oc1cc(F)ccc1Nc1ncnc2cc(N=S3(=O)CCCC3)cc(C)c12` [Example 6.4]: 20 nM.
The same measure, in the same setting: next, `CO[C@@H]1CN(S(C)(=O)=O)C[C@H]1Oc1ncccc1Nc1ncnc2cc(N=S3(=O)CCCC3)cc(C)c12` [Example 6.5]: 28 nM.
Same read-out and setting: to `CO[C@@H]1CN(S(C)(=O)=O)C[C@H]1Oc1ncccc1Nc1ncnc2cc(N=S(C)(C)=O)cc(C)c12` [Example 6.6] belongs 80 nM; to `CO[C@@H]1CN(S(C)(=O)=O)C[C@H]1Oc1cc(F)ccc1Nc1ncnc2cc(N=S(C)(C)=O)cc(C)c12` [Example 6.7], 62 nM; to `CO[C@@H]1CN(C(C)=O)C[C@H]1Oc1ncccc1Nc1ncnc2cc(N=S3(=O)CCCC3)cc(C)c12` [Example 6.8], 128 nM.
As for `CC(=O)O[C@H]1CN(C(C)=O)C[C@@H]1Oc1ncccc1Nc1ncnc2cc(N=S3(=O)CCCC3)cc(C)c12` [Example 6.10], the IC50 was determined as 378 nM.
`COc1cc(N=S2(=O)CCCC2)cc2ncnc(Nc3ccc(Cl)nc3O[C@H]3COC[C@@H]3O)c12` [Example 8.1]: the concentration for half-maximal inhibition (IC50) came out at 3 nM.
On the same count and under the same terms, to `COc1cc(N=S(C)(C)=O)cc2ncnc(Nc3ccc(Cl)nc3O[C@H]3COC[C@@H]3O)c12` [Example 8.2] belongs 3 nM.
Still for that read-out and setting: next, `COc1cc(N=S2(=O)CCCC2)cc2ncnc(Nc3cccnc3O[C@H]3COC[C@@H]3O)c12` [Example 8.3]: 6 nM; `COc1cc(N=S(C)(C)=O)cc2ncnc(Nc3ccc(F)cc3O[C@H]3COC[C@@H]3O)c12` [Example 9.4]: 7 nM; `CCOc1cc(N=S(C)(C)=O)cc2ncnc(Nc3ccc(F)cc3O[C@H]3COC[C@@H]3O)c12` [Example 9.6]: 8 nM.
Still for that read-out and setting: next, `CS(C)(=O)=Nc1cc(OCCF)c2c(Nc3ccc(F)cc3O[C@H]3COC[C@@H]3O)ncnc2c1` [Example 9.8]: 39 nM.
For the compound `COc1cc(N=S(C)(=O)C(C)C)cc2ncnc(Nc3ccc(F)cc3O[C@H]3COC[C@@H]3O)c12` (stereo partly drawn) [Example 9.9], the IC50 is 7 nM.
Still for that read-out and setting: next, `COc1cc(N=S2(=O)CCC2)cc2ncnc(Nc3ccc(F)cc3O[C@H]3COC[C@@H]3O)c12` [Example 9.10]: 3 nM; `COc1cc(N=S(C)(=O)c2cccnc2)cc2ncnc(Nc3ccc(F)cc3O[C@H]3COC[C@@H]3O)c12` (stereo partly drawn) [Example 9.14]: 13 nM.
`COc1cc(N=S(C)(=O)C(C)(C)C)cc2ncnc(Nc3ccc(F)cc3O[C@H]3COC[C@@H]3O)c12` (stereo partly drawn) [Example 9.18]: the IC50 was 8 nM.
For `COc1cc(N=S2(=O)CCC(C)C2)cc2ncnc(Nc3ccc(F)cc3O[C@H]3COC[C@@H]3O)c12` (stereo partly drawn) [Example 9.24], the IC50 was 4 nM.
With `COc1cc(N=S2(=O)CCCC2)cc2ncnc(Nc3ccc(F)cc3O[C@H]3COC[C@@H]3O)c12` [Example 9.29], the IC50 was found to be 3 nM.
The same measure, in the same setting: next, `CO[C@@H]1CN(C)C[C@H]1Oc1cc(F)ccc1Nc1ncnc2cc(N=S(C)(C)=O)cc(C)c12` [Example 11.1]: 54 nM; `CO[C@@H]1CN(C)C[C@H]1Oc1cc(F)ccc1Nc1ncnc2cc(N=S3(=O)CCCC3)cc(C)c12` [Example 11.2]: 31 nM; `CO[C@@H]1CN(C)C[C@H]1Oc1ncccc1Nc1ncnc2cc(N=S3(=O)CCCC3)cc(C)c12` [Example 11.3]: 12 nM.
Same read-out and setting: next, `CO[C@@H]1CN(C)C[C@H]1Oc1ncccc1Nc1ncnc2cc(N=S(C)(C)=O)cc(C)c12` [Example 11.4]: 59 nM.
As to `Cc1cc(N=S2(=O)CCCC2)cc2ncnc(Nc3ccc(F)cc3O[C@@H]3COC[C@@H]3OCc3ccccc3)c12` [Example 13.3], the IC50 was 15 nM.
Same read-out and setting: next, `CO[C@@H]1COC[C@@H]1Oc1cc(F)ccc1Nc1ncnc2cc(N=S(C)(C)=O)cc(C)c12` [Example 14.8]: 1 nM.

The next assay has as its system MNK2 (MNK2a or MNK2b) or MNK1.
Experiment: not given
To be noted: cell culture cells transfected with MNK2 (MNK2a or MNK2b) or MNK1; cited from earlier work.
In the case of `Nc1ncnc2n[nH]c(Nc3ccc(F)cc3)c12` [CGP57380], the “reduction of phosphorylated eIF4E” value is on record as “strong reduction of phosphorylated eIF4E”.

The next assay has as its target MNK1a (Homo sapiens (Human), UniProt Q9BUB5). Nature of the assay: MNK1 in vitro kinase assay (Assay 3), Z'-LYTE. The class given is biochemical.
Conditions: not given
In turn, `CO[C@@H]1CN(S(C)(=O)=O)C[C@H]1Oc1ncccc1Nc1ncnc2cc(N=S(C)(C)=O)cc(C)c12` [Example 6.6] came in with an IC50 of 1400 nM.
For `COc1cc(N=S2(=O)CCC2)cc2ncnc(Nc3ccc(F)cc3O[C@H]3COC[C@@H]3O)c12` [Example 9.10], the IC50 amounted to 28 nM.
On the same count and under the same terms, to `CO[C@@H]1COC[C@@H]1Oc1cc(F)ccc1Nc1ncnc2cc(N=S(C)(C)=O)cc(C)c12` [Example 14.8] belongs 80 nM.

Staying with this assay, now noted: compound concentration of 1 μM, read-out: MNK1 % INH.
As to `CO[C@@H]1CN(C(C)=O)C[C@H]1Oc1cc(F)ccc1Nc1ncnc2cc(N=S3(=O)CCCC3)cc(C)c12` [Example 6.2], the inhibition at 1 µM turned out to be 31%.
Same read-out and setting: next, `CO[C@@H]1CN(C(C)=O)C[C@H]1Oc1ncccc1Nc1ncnc2cc(N=S(C)(C)=O)cc(C)c12` [Example 6.3]: 9%; `CO[C@@H]1CN(S(C)(=O)=O)C[C@H]1Oc1cc(F)ccc1Nc1ncnc2cc(N=S3(=O)CCCC3)cc(C)c12` [Example 6.4]: 62%.
On the same count and under the same terms, to `CO[C@@H]1CN(S(C)(=O)=O)C[C@H]1Oc1ncccc1Nc1ncnc2cc(N=S3(=O)CCCC3)cc(C)c12` [Example 6.5] belongs 60%; to `CO[C@@H]1CN(S(C)(=O)=O)C[C@H]1Oc1cc(F)ccc1Nc1ncnc2cc(N=S(C)(C)=O)cc(C)c12` [Example 6.7], 35%; to `CO[C@@H]1CN(C(C)=O)C[C@H]1Oc1ncccc1Nc1ncnc2cc(N=S3(=O)CCCC3)cc(C)c12` [Example 6.8], 41%.
The same measure, in the same setting: to `CC(=O)O[C@H]1CN(C(C)=O)C[C@@H]1Oc1ncccc1Nc1ncnc2cc(N=S3(=O)CCCC3)cc(C)c12` [Example 6.10] belongs 38%; to `COc1cc(N=S2(=O)CCCC2)cc2ncnc(Nc3ccc(Cl)nc3O[C@H]3COC[C@@H]3O)c12` [Example 8.1], 97%; to `COc1cc(N=S(C)(C)=O)cc2ncnc(Nc3ccc(Cl)nc3O[C@H]3COC[C@@H]3O)c12` [Example 8.2], 100%.
In the case of `COc1cc(N=S2(=O)CCCC2)cc2ncnc(Nc3cccnc3O[C@H]3COC[C@@H]3O)c12` [Example 8.3], the inhibition at 1 µM was 97%.
`COc1cc(N=S(C)(C)=O)cc2ncnc(Nc3ccc(F)cc3O[C@H]3COC[C@@H]3O)c12` [Example 9.4]: the inhibition at 1 µM came out at 102%.
On to `CCOc1cc(N=S(C)(C)=O)cc2ncnc(Nc3ccc(F)cc3O[C@H]3COC[C@@H]3O)c12` [Example 9.6], for which the inhibition at 1 µM turned out to be 94%.
On the same count and under the same terms, to `CS(C)(=O)=Nc1cc(OCCF)c2c(Nc3ccc(F)cc3O[C@H]3COC[C@@H]3O)ncnc2c1` [Example 9.8] belongs 75%.
The same measure, in the same setting: to `COc1cc(N=S(C)(=O)C(C)C)cc2ncnc(Nc3ccc(F)cc3O[C@H]3COC[C@@H]3O)c12` (stereo partly drawn) [Example 9.9] belongs 94%; to `COc1cc(N=S2(=O)CCC2)cc2ncnc(Nc3ccc(F)cc3O[C@H]3COC[C@@H]3O)c12` [Example 9.10], 104%.
On to `COc1cc(N=S(C)(=O)c2cccnc2)cc2ncnc(Nc3ccc(F)cc3O[C@H]3COC[C@@H]3O)c12` (stereo partly drawn) [Example 9.14], for which the inhibition at 1 µM came to 84%.
In the case of `COc1cc(N=S(C)(=O)C(C)(C)C)cc2ncnc(Nc3ccc(F)cc3O[C@H]3COC[C@@H]3O)c12` (stereo partly drawn) [Example 9.18], the inhibition at 1 µM was 97%.
Regarding `COc1cc(N=S2(=O)CCC(C)C2)cc2ncnc(Nc3ccc(F)cc3O[C@H]3COC[C@@H]3O)c12` (stereo partly drawn) [Example 9.24], the inhibition at 1 µM amounted to 97%.
Still for that read-out and setting: next, `COc1cc(N=S2(=O)CCCC2)cc2ncnc(Nc3ccc(F)cc3O[C@H]3COC[C@@H]3O)c12` [Example 9.29]: 94%; `CO[C@@H]1CN(C)C[C@H]1Oc1cc(F)ccc1Nc1ncnc2cc(N=S(C)(C)=O)cc(C)c12` [Example 11.1]: 44%.
With `CO[C@@H]1CN(C)C[C@H]1Oc1cc(F)ccc1Nc1ncnc2cc(N=S3(=O)CCCC3)cc(C)c12` [Example 11.2], the inhibition at 1 µM worked out at 75%.
The same measure, in the same setting: next, `CO[C@@H]1CN(C)C[C@H]1Oc1ncccc1Nc1ncnc2cc(N=S3(=O)CCCC3)cc(C)c12` [Example 11.3]: 87%; `CO[C@@H]1CN(C)C[C@H]1Oc1ncccc1Nc1ncnc2cc(N=S(C)(C)=O)cc(C)c12` [Example 11.4]: 56%; `Cc1cc(N=S2(=O)CCCC2)cc2ncnc(Nc3ccc(F)cc3O[C@@H]3COC[C@@H]3OCc3ccccc3)c12` [Example 13.3]: 79%.

The values above are taken from patent US10093660B2, “Sulfoximine substituted quinazolines for pharmaceutical compositions” (EVOTEC INTERNATIONAL GMBH, priority 2013, dated 2018).
